Source: patent EP4501920A1, “NOVEL PYRAZOLE DERIVATIVES” (Aptabio Therapeutics Inc., priority 2022, dated 2023)

Experiments:
IL-1β = assay: Expression of IL-1β induced by LPS in human-derived fibroblasts (RT-PCR); assay type: cell-based; conditions: LPS (1 µg/ml) 6 hours; 10 µM; FIG. 8 (LX2, NHLF, ARPE19 and KEL-Fib cells)
Method: After inoculating 2×10^5 cells in a 6 well plate and then culturing for 24 hours, they were further cultured in a serum-free culture solution for 16 hours and then the Synthetic example 1 Compound was pre-treated for 20 minutes according to each condition and inflammation reaction was induced with LPS (1 µg/ml) for 6 hours. The expression of IL-1β was confirmed using RT-PCR. Total RNA was separated from the cells using RNeasy mini kit (Qiagen), and for the separated RNA 2ug, cDNA was synthesized using PrimeScript™ II 1st strand cDNA synthesis kit (TaKaRa) and then PCR was performed with AccuPower® PCR PreMix (Bioneer) to amplify genes. The nucleotide sequences for target primers are as follows. IL-1β (forward: 5'-[…]-3'(SEQ ID NO: 1), reverse: 5'-[…]-3'(SEQ ID NO: 2)); GAPDH (forward: 5'-[…]-3'(SEQ ID NO: 3), reverse: 5'-[…]-3'(SEQ ID NO: 4)); β-actin (forward: 5'-[…]-3'(SEQ ID NO: 5), reverse: 5'-[…]-3'(SEQ ID NO: 6)). The PCR product was confirmed by electrophoresis in 1.5% agarose gel.

αSMA = assay: Expression of αSMA induced by TGF-β1 (immunocytochemistry); assay type: cell-based, human; conditions: TGF-β1 (10 ng/ml), 10 µM, FIG. 4
Text: In order to confirm whether the compounds of Synthetic examples of the present invention affect differentiation of fibroblasts into myofibroblasts, the inhibitory effect of the compounds of Synthetic examples on increase in expression of αSMA (biomarker for confirming differentiation into myofibroblasts) induced by TGF-β1 on HFF-1 (human foreskin fibroblast, ATCC), NHLF (normal human lung fibroblast, Lonza), LX-2 (human hepatic stellate cells, Sigma), ARPE19 (human retinal pigment epithelial cell, ATCC), and KEL-FIB (Keloid fibroblast, ATCC) cells was to be observed.
Each cell was suspended in a DMEM medium containing 10% FBS and aliquoted at a concentration of 1×10^4 to 1.5 × 10 ^5 cells/well in a 4-well chamber slide (Nunc) and the compounds of Synthetic examples and TGF-β1 (both TGF β1 and TGF-β have the same meaning) were treated to prepare cells to be used for confirming αSMA expression. The confirmation of αSMA expression in the prepared cells was performed by immunocytochemistry as follows. For the cells, fixation with 4% paraformaldehyde for 10 minutes and permeabilization using 0.1% Triton x-100 were performed, and then processes of treating the primary antibody (anti-αSMA Ab, 1:200, at 4°C for 16 hours) and secondary antibody (Alexa-594 conjugated Ab, 1:800, at a room temperature for 1 hour) against αSMA were progressed in order, and then the expression level of αSMA was observed using a fluorescence microscope.
FIG. 3 observes the effect of treating various compounds of Synthetic examples by 10, 20 and 40 µM, after inducing αSMA expression by treatment of TGF-β1(10 ng/ml) into HFF cells.

IL-6 = assay: Expression of IL-6 in pancreatic cancer associated fibroblasts (ELISA); assay type: cell-based, human; conditions: P.CAF cells; compounds 10, 20, 30, 40, 60 and 80 µM for 48 hours; FIG. 5
Method: (§1) In order to confirm the effect of the compounds of Synthetic examples of the present invention on inflammation reaction in cancer associated fibroblasts, whether the expression of IL6 and IL8 was inhibited by the compounds of Synthetic examples in pancreatic cancer associated fibroblasts (PCAF) was observed.
(§2) After inoculating 1.5×10^5 cells in a 6 well plate and then culturing in P.CAF complete media for 48 hours, the compounds of Synthetic examples were treated by 10, 20, 30, 40, 60 and 80 µM for 48 hours according to each condition, and then the expression of IL-6 and IL-8 was confirmed by performing ELISA with Quantkine ELISA kit (R&D systems) as follows.
(§3) 100 µl of the culture solution in which the compounds of Synthetic examples were treated for 48 hours was added to the microplate strip for analysis including a 100 µl assay diluent and left at a room temperature for 2 hours and then the contents were removed, and then it was washed with 400 µl wash buffer 4 times. 200 µl of a human IL-6 or IL-8 conjugate was added and left at a room temperature for 2 hours and then the contents were removed, and then it was washed with 400 µl wash buffer 4 times. 200 µl of substrate solution was added and left at a room temperature for 20 minutes and then 50 µl of stop solution was added, and the absorbance at a wavelength of 450nm was measured within 30 minutes to confirm the expression level of IL-6 and IL-8.

IL-8 = assay: Expression of IL-8 in pancreatic cancer associated fibroblasts (ELISA); assay type: cell-based, human; conditions: P.CAF cells; compounds 10, 20, 30, 40, 60 and 80 µM for 48 hours; FIG. 6
Method: as §1, §2, §3

[1] = system: LX-2 (human hepatic stellate cells); assay: ROS production induced by PMA in LX-2 cells; assay type: cell-based; conditions: FIG. 1
Text: (§4) In order to confirm the effect of the compounds of Synthetic examples on ROS production from fibroblasts and specific substrate cells, ROS production was induced by stimulation of PMA (phorbol 12-myristate 13-acetate), TGF-β1, palmitate or high concentration-glucose, or the like, in HL-60 cells differentiated into neutrophil cells by DMSO treatment, NHLF (normal human lung fibroblast, Lonza), LX-2 (human hepatic stellate cells, Sigma), ARPE19 (human retinal pigment epithelial cell, ATCC), and KEL-FIB (Keloid fibroblast, ATCC) cells, and under this condition, the inhibitory effect of ROS production of the compounds of Synthetic examples was observed.
(§5) The NHLF (normal human lung fibroblast, Lonza), LX-2 (human hepatic stellate cells, Sigma), ARPE19 (human retinal pigment epithelial cell, ATCC), KEL-FIB (keloid fibroblast, ATCC) cells were suspended in a culture medium containing 10% FBS and aliquoted on a 96 well plate and then cultured under the condition of 5% CO2, 37°C for 24 hours. After pre-treating the compounds of Synthetic examples at a concentration of 10, 20, 30, 40, 60 and 80 µM for 30 minutes to 1 hour, the ROS stimulus was treated to each well containing the cells and drug. After additional culturing for 48 hours, the ROS production level was confirmed using L-012 or DCF-DA.

[2] = system: human foreskin fibroblasts (HFF-1, ATCC); assay: Collagen gel contraction induced by TGF-β1; assay type: cell-based; conditions: HFF-1 cells and bovine type I collagen; TGF-β1 (10 ng/ml); 72 hours; FIG. 7
Text: In order to confirm the effect of the compounds of Synthetic examples on differentiation of fibroblasts into myofibroblasts, the inhibitory effect of the compounds of Synthetic examples on the phenomenon of contraction of gel induced by interaction of human foreskin fibroblasts (HFF-1, ATCC) and collagen was observed.
The mixed solution of the HFF-1 cells and collagen (bovine type I collagen) prepared at a concentration of 3×10^6 cells/ml was aliquoted in a 24 well plate, respectively, and then cultured under the condition of 5% CO2, 37 °C for 1 hour to induce gel polymerization. Then, after suspending the gel attached on the plate from the plate using a spoon, a medium comprising TGF-β1 and Synthetic example compounds was added to each well. After culturing for 72 hours, the Synthetic example compounds were treated by 10, 20, 30, 40, 60 and 80 µM to measure the size of the gel, and thereby, the degree of contraction of the gel by drug treatment was confirmed.

[3] = system: NHLF (normal human lung fibroblast); assay: ROS production induced by PMA in NHLF cells; assay type: cell-based; conditions: FIG. 1
Text: as §4, §5

CN(Cc1ccccc1)C1CCc2nn(-c3ccccn3)c(O)c2C1 (stereo not shown) [Compound 1, 5-(Benzylmethylamino)-2-(pyridin-2-yl)-4,5,6,7-tetrahydro-2H-indazol-3-ol]
IL-1β induced by LPS (IL-1β): effectively inhibited in a concentration-dependent manner
increase in expression of αSMA induced by TGF-β1 (αSMA; ARPE19 cells): significantly inhibited
increase in expression of αSMA induced by TGF-β1 (αSMA; KEL-FIB cells): significantly inhibited
increase in expression of αSMA induced by TGF-β1 (αSMA; LX-2 cells): significantly inhibited
increase in expression of αSMA induced by TGF-β1 (αSMA; NHLF cells): significantly inhibited
IL-6 expressed in P.CAF (IL-6): effectively inhibited
IL-8 expressed in P.CAF (IL-8): effectively inhibited
ROS production induced by PMA [1]: inhibited
contraction of the gel induced by TGF-β1 [2]: effectively inhibited
ROS production induced by PMA [3]: inhibited
